# In US8883679B2, “Liquid mycorrhiza compositions” (Novozymes A/S, priority 2007, dated 2014):
# Test system: roots of corn plants
# Assay: endomycorrhizal mean infection percentage (MIP) bioassay
# Assay type: in vivo, Zea Maize 'Golden Bantam'
# Conditions: both trials
# Method: An endomycorrhizal mean infection percentage (MIP) bioassay was initiated to test mycorrhizal infectivity of a liquid mycorrhizal formulation treated with bactericides. The MIP bioassay is used to determine the effect of endomycorrhizal colonization in the roots of corn plants on the treatment applied. The MIP bioassay was adapted to utilize 15 mL of liquid per pot. The liquid mycorrhizal formulation which was tested was MycoApply Ultra (Novozymes Biologicals), which is a mycorrhizal inoculant that contains several species of endomycorrhizas. For a ready to use fertilizer, the optimal amount of mycorrhizas to be added based on application rate of ready to use fertilizer, mycorrhizal infectivity, and cost effectiveness was 0.1 propagules of mycorrhizas per 1.0 mL of ready to use fertilizer. MycoApply Ultra contains 286 propagules per gram, therefore 0.00034 g MycoApply Ultra in 1 mL of ready to use fertilizer will provide the desired concentration of mycorrhizal propagules, 0.1 prop/mL. The MycoApply Ultra was tested with two different concentrates 10× (0.0034 g/mL) and 100× (0.034 g/mL). The bactericide used in all treatments for Trial 1 was 500 ppm Kathon and 250 ppm Bronopol. There were seven treatment groups, each contained 5 replicates. Treatment 1 was a water only control. […] At harvest the parameter evaluated was percent mycorrhizal colonization. […]
smiles,measurement,value
"O=[N+]([O-])C(Br)(CO)CO [Bronopol, 2-bromo-2-nitro-1,3-propanediol]",ability of mycorrhizas to germinate and infect roots in presence of bactericide,increase
